Laboratory results published in US8916557B2, “Substituted 4-Aryl-N-phenyl-1,3,5-triazin-2-amines” (Bayer Intellectual Property GmbH, priority 2011, dated 2014).

Columns and labels:
[1] = biological target: T1, CDK2/CycE (Homo sapiens, UniProt P24941); assay: CDK2/CycE kinase assay (TR-FRET); assay type: biochemical; details: Method 2, 10 μM ATP
T1 construct: GST; purchased ProQinase GmbH (Freiburg, Germany); host or cells: insect cells (Sf9)
Excerpt: 2. CDK2/CycE Kinase Assay:
CDK2/CycE-inhibitory activity of compounds of the present invention was quantified employing the CDK2/CycE TR-FRET assay as described in the following paragraphs:
Recombinant fusion proteins of GST and human CDK2 and of GST and human CycE, expressed in insect cells (Sf9) and purified by Glutathion-Sepharose affinity chromatography, were purchased from ProQinase GmbH (Freiburg, Germany). As substrate for the kinase reaction biotinylated peptide biotin-Ttds-[…] (C-terminus in amid form) was used which can be purchased e.g. form the company JERINI Peptide Technologies (Berlin, Germany).
For the assay 50 nl of a 100fold concentrated solution of the test compound in DMSO was pipetted into a black low volume 384well microtiter plate (Greiner Bio-One, Frickenhausen, Germany), 2 μl of a solution of CDK2/CycE in aqueous assay buffer [50 mM Tris/HCl pH 8.0, 10 mM MgCl2, 1.0 mM dithiothreitol, 0.1 mM sodium ortho-vanadate, 0.01% (v/v) Nonidet-P40 (Sigma)] were added and the mixture was incubated for […] at 22° C. to allow pre-binding of the test compounds to the enzyme before the start of the kinase reaction. Then the kinase reaction was started by the addition of 3 μl of a solution of adenosine-tri-phosphate (ATP, 16.7 μM=>final conc. in the 5 it assay volume is 10 μM) and substrate (1.25 μM=>final conc. in the 5 it assay volume is 0.75 μM) in assay buffer and the resulting mixture was incubated for a reaction time of […] at 22° C. The concentration of CDK2/CycE was adjusted depending of the activity of the enzyme lot and was chosen appropriate to have the assay in the linear range, typical concentrations were in the range of 130 ng/ml. The reaction was stopped by the addition of 5 it of a solution of TR-FRET detection reagents (0.2 μM streptavidine-XL665 [Cisbio Bioassays, Codolet, France] and 1 nM anti-RB(pSer807/pSer811)-antibody from BD Pharmingen [#558389] and 1.2 nM LANCE EU-W1024 labeled anti-mouse IgG antibody [Perkin-Elmer, product no. AD0077]) in an aqueous EDTA-solution (100 mM EDTA, 0.2% (w/v) bovine serum albumin in 100 mM HEPES/NaOH pH 7.0).
(§1) The resulting mixture was incubated 1 h at 22° C. to allow the formation of complex between the phosphorylated biotinylated peptide and the detection reagents. Subsequently the amount of phosphorylated substrate was evaluated by measurement of the resonance energy transfer from the Eu-chelate to the streptavidine-XL. Therefore, the fluorescence emissions at 620 nm and 665 nm after excitation at 350 nm was measured in a TR-FRET reader, e.g. a Rubystar (BMG Labtechnologies, Offenburg, Germany) or a Viewlux (Perkin-Elmer). The ratio of the emissions at 665 nm and at 622 nm was taken as the measure for the amount of phosphorylated substrate.

[2] = biological target: T2, CDK9/CycT1 (Homo sapiens, UniProt P50750); assay: CDK9/CycT1 kinase assay (TR-FRET); assay type: biochemical; details: Method 1, 10 μM ATP
T2 construct: Recombinant full-length His-tagged human CDK9 and CycT1; His; purchased Invitrogen PV4131; host or cells: insect cells
Excerpt: 1. CDK9/CycT1 Kinase Assay:
CDK9/CycT1-inhibitory activity of compounds of the present invention was quantified employing the CDK9/CycT1 TR-FRET assay as described in the following paragraphs:
Recombinant full-length His-tagged human CDK9 and CycT1, expressed in insect cells and purified by Ni-NTA affinity chromatography, were purchased from Invitrogen (Cat. No PV4131). As substrate for the kinase reaction biotinylated peptide biotin-Ttds-[…] (C-terminus in amid form) was used which can be purchased e.g. form the company JERINI Peptide Technologies (Berlin, Germany). For the assay 50 nl of a 100fold concentrated solution of the test compound in DMSO was pipetted into a black low volume 384well microtiter plate (Greiner Bio-One, Frickenhausen, Germany), 2 μl of a solution of CDK9/CycT1 in aqueous assay buffer [50 mM Tris/HCl pH 8.0, 10 mM MgCl2, 1.0 mM dithiothreitol, 0.1 mM sodium ortho-vanadate, 0.01% (v/v) Nonidet-P40 (Sigma)] were added and the mixture was incubated for 15 min at 22° C. to allow pre-binding of the test compounds to the enzyme before the start of the kinase reaction. Then the kinase reaction was started by the addition of 3 μl of a solution of adenosine-tri-phosphate (ATP, 16.7 μM=>final conc. in the 5 μl assay volume is 10 μM) and substrate (1.67 μM=>final conc. in the 5 μl assay volume is 1 μM) in assay buffer and the resulting mixture was incubated for a reaction time of 25 min at 22° C. The concentration of CDK9/CycT1 was adjusted depending of the activity of the enzyme lot and was chosen appropriate to have the assay in the linear range, typical concentrations were in the range of 1 μg/ml. The reaction was stopped by the addition of 5 μl of a solution of TR-FRET detection reagents (0.2 μM streptavidine-XL665 [Cisbio Bioassays, Codolet, France] and 1 nM anti-RB(pSer807/pSer811)-antibody from BD Pharmingen [#558389] and 1.2 nM LANCE EU-W1024 labeled anti-mouse IgG antibody [Perkin-Elmer, product no. AD0077]) in an aqueous EDTA-solution (100 mM EDTA, 0.2% (w/v) bovine serum albumin in 100 mM HEPES/NaOH pH 7.0).
as §1, with “HTRF” for “TR-FRET”

T2 sequence (P50750 whole entry): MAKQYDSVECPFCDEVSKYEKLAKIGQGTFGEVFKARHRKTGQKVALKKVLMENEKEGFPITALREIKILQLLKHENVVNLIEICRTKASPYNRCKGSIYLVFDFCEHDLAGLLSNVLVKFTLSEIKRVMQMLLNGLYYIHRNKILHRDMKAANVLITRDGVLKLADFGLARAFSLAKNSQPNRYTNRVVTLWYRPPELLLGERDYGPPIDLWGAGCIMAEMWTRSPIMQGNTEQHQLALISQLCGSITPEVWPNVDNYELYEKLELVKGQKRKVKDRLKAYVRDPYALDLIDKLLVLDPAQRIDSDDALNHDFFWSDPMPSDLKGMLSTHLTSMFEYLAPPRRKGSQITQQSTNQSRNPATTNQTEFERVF
T2 sequence (O60563 whole entry partner): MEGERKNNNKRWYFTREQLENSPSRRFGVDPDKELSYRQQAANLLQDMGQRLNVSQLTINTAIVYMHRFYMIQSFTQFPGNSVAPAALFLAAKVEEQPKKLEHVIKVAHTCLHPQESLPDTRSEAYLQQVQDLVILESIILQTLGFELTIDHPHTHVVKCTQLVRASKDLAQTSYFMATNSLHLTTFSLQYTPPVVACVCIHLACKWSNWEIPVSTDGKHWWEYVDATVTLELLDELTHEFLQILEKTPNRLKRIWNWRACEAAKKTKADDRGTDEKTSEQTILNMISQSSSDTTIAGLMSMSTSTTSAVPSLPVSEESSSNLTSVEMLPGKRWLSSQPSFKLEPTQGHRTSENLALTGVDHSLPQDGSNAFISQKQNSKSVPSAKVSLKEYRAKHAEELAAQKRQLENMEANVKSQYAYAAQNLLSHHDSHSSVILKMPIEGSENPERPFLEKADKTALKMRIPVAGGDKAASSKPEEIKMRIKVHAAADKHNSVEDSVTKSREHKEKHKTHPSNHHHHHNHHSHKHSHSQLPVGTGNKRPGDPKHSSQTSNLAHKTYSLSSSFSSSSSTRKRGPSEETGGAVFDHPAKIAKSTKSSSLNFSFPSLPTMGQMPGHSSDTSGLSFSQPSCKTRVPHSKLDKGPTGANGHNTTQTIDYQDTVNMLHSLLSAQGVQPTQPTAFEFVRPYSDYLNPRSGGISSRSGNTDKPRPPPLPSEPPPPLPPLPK

Row | Structure (SMILES) | IC50 [1] [µM] | IC50 [2] [µM]
1 | COc1c(-c2ncnc(Nc3cccc(CS(C)(=O)=O)c3)n2)ccc(F)c1F [Example 2, 4-(3,4-Difluoro-2-methoxyphenyl)-N-{3-[(methylsulfonyl)methyl]phenyl}-1,3,5-triazin-2-amine] | 8.6 | 0.16
2 | CS(=O)(=O)Cc1cccc(Nc2ncnc(-c3cccc4c3OC(F)(F)O4)n2)c1 [Example 6, 4-(2,2-Difluoro-1,3-benzodioxol-4-yl)-N-{3-[(methylsulfonyl)methyl]phenyl}-1,3,5-triazin-2-amine] | 1.3 | 0.033
3 | CS(=O)(=O)Cc1cccc(Nc2ncnc(-c3ccccc3OC(F)(F)F)n2)c1 [Example 7, N-{3-[(Methylsulfonyl)methyl]phenyl}-4-[2-(trifluoromethoxy)phenyl]-1,3,5-triazin-2-amine] | 5.4 | 0.33
4 | COc1ccc(F)cc1-c1ncnc(Nc2cccc(CS(C)(=O)=O)c2)n1 [Example 11, 4-(5-Fluoro-2-methoxyphenyl)-N-{3-[(methylsulfonyl)methyl]phenyl}-1,3,5-triazin-2-amine] | 1.3 | 0.033
5 | CS(=O)(=O)Cc1cccc(Nc2ncnc(-c3ccccc3OCC(F)(F)F)n2)c1 [Example 16, N-{3-[(Methylsulfonyl)methyl]phenyl}-4-[2-(2,2,2-trifluoroethoxy)phenyl]-1,3,5-triazin-2-amine] | 8.3 | 0.074
6 | COc1cc(F)ccc1-c1ncnc(Nc2cccc(CS(=O)(=O)C(C)(C)C)c2)n1 [Example 17, N-{3-[(tert-Butylsulfonyl)methyl]phenyl}-4-(4-fluoro-2-methoxyphenyl)-1,3,5-triazin-2-amine] | 2 | 0.047
7 | CS(=O)(=O)Cc1cccc(Nc2ncnc(-c3cccc4c3OC(F)(F)C(F)(F)O4)n2)c1 [Example 19, N-{3-[(Methylsulfonyl)methyl]phenyl}-4-(2,2,3,3-tetrafluoro-2,3-dihydro-1,4-benzodioxin-5-yl)-1,3,5-triazin-2-amine] | 0.64 | 0.035
8 | COc1ncccc1-c1ncnc(Nc2cccc(CS(C)(=O)=O)c2)n1 [Example 20, 4-(2-Methoxypyridin-3-yl)-N-{3-[(methylsulfonyl)methyl]phenyl}-1,3,5-triazin-2-amine] | 8.2 | 0.11
9 | CS(=O)(=O)Cc1cccc(Nc2ncnc(-c3cc(F)ccc3OCC3CCOCC3)n2)c1 [Example 21, 4-[5-Fluoro-2-(tetrahydro-2H-pyran-4-ylmethoxy)phenyl]-N-{3-[(methylsulfonyl)methyl]phenyl}-1,3,5-triazin-2-amine] | 8.8 | 0.11
10 | CS(=O)(=O)Cc1cccc(Nc2ncnc(-c3ccccc3OCc3ccccc3Cl)n2)c1 [Example 27, 4-{2-[(2-Chlorobenzyl)oxy]phenyl}-N-{3-[(methylsulfonyl)methyl]phenyl}-1,3,5-triazin-2-amine] | 8.8 | 0.087
11 | CS(=O)(=O)Cc1cccc(Nc2ncnc(-c3cc(F)ccc3OCc3ccccc3F)n2)c1 [Example 30, 4-{5-Fluoro-2-[(2-fluorobenzyl)oxy]phenyl}-N-{3-[(methylsulfonyl)methyl]phenyl}-1,3,5-triazin-2-amine] | 6.6 | 0.032
12 | COc1cc(Cl)ccc1-c1ncnc(Nc2cccc(CS(C)(=O)=O)c2)n1 [Example 32, 4-(4-Chloro-2-methoxyphenyl)-N-{3-[(methylsulfonyl)methyl]phenyl}-1,3,5-triazin-2-amine] | 2.3 | 0.025
13 | COc1cc(F)ccc1-c1ncnc(Nc2cccc(CS(=O)(=O)c3ccccc3)c2)n1 [Example 35, 4-(4-Fluoro-2-methoxyphenyl)-N-{3-[(phenylsulfonyl)methyl]phenyl}-1,3,5-triazin-2-amine] | 2.2 | 0.03
14 | CCOCCOc1cc(F)ccc1-c1ncnc(Nc2cccc(CS(C)(=O)=O)c2)n1 [Example 51, 4-[2-(2-Ethoxyethoxy)-4-fluorophenyl]-N-{3-[(methylsulfonyl)methyl]phenyl}-1,3,5-triazin-2-amine] | 9.4 | 0.08

More lines, now with the values ahead:

Row | IC50 [1] [µM] | IC50 [2] [µM] | Structure (SMILES)
15 | 1.4 | 0.025 | CC(C)Oc1cc(F)ccc1-c1ncnc(Nc2cccc(CS(C)(=O)=O)c2)n1 [Example 5, 4-[4-Fluoro-2-(propan-2-yloxy)phenyl]-N-{3-[(methylsulfonyl)methyl]phenyl}-1,3,5-triazin-2-amine]
16 | 3.9 | 0.13 | CS(=O)(=O)Cc1cccc(Nc2ncnc(-c3ccc(F)cc3OC(F)F)n2)c1 [Example 15, 4-[2-(Difluoromethoxy)-4-fluorophenyl]-N-{3-[(methylsulfonyl)methyl]phenyl}-1,3,5-triazin-2-amine]
17 | 7.4 | 0.17 | CS(=O)(=O)Cc1cccc(Nc2ncnc(-c3ccc(F)cc3OCCC3CCCCC3)n2)c1 [Example 63, 4-[2-(2-Cyclohexylethoxy)-4-fluorophenyl]-N-{3-[(methylsulfonyl)methyl]phenyl}-1,3,5-triazin-2-amine]
18 | 1.8 | 0.034 | CS(=O)(=O)Cc1cccc(Nc2ncnc(-c3ccc(F)cc3OC3CCC3)n2)c1 [Example 64, 4-[2-(Cyclobutyloxy)-4-fluorophenyl]-N-{3-[(methylsulfonyl)methyl]phenyl}-1,3,5-triazin-2-amine]
19 | 2.3 | 0.036 | CS(=O)(=O)Cc1cccc(Nc2ncnc(-c3ccc(F)cc3OC3CCCC3)n2)c1 [Example 65, 4-[2-(Cyclopentyloxy)-4-fluorophenyl]-N-{3-[(methylsulfonyl)methyl]phenyl}-1,3,5-triazin-2-amine]
20 | 6.8 | 0.022 | CS(=O)(=O)Cc1cccc(Nc2ncnc(-c3ccc(F)cc3OCC3(F)CCCCC3)n2)c1 [Example 66, 4-{4-Fluoro-2-[(1-fluorocyclohexyl)-methoxy]phenyl}-N-{3-[(methylsulfonyl)-methyl]phenyl}-1,3,5-triazin-2-amine]
